Reference: US11078170B2 (Assembly Biosciences, Inc., priority 2017, dated 2021)
pEC50: −log10 of the molar value.

Test system: HBV viral production from HepAD38 cells
Test: Activity of test compounds on viral production from HepAD38 cells (viral load by qPCR of HBV core sequence in supernatant)
Format: cell-based
Conditions: Hepatitis B virus, 120 h, 5 days incubation, HBV DNA in supernatant by qPCR, top concentration 10 μM, read-out: Viral Load EC50 Activity range
Outline: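 HepAD38 cells, 50,000/well in tetracycline-free 2% FBS medium, treated 5 days at 37° C. with compound from 10 μM top concentration. HBV DNA in supernatant quantified by TaqMan qPCR of core sequence against DNA standards, relative to DMSO wells; CellTiter-Glo viability read in parallel. EC50/CC50 from four-parameter logistic fit.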

| SMILES | pEC50 |
| --- | --- |
| CN1[C@@H](C(=O)Nc2ccc(F)c(Cl)c2)C[C@@H](c2ccccc2)NS1(=O)=O [HBV-CSU-113-ISO-II, Cis-N-(3-chloro-4-fluorophenyl)-2-methyl-5-phenyl-1,2,6-thiadiazinane-3-carboxamide 1,1-dioxide] | < 5.30 |
| CN1C(C(=O)Nc2ccc(F)c(Cl)c2)CC(c2ccc(Br)s2)NS1(=O)=O (stereo not drawn) [HBV-CSU-114, 5-(5-Bromothiophen-2-yl)-N-(3-chloro-4-fluorophenyl)-2-methyl-1,2,6-thiadiazinane-3-carboxamide 1,1-dioxide] | > 6.00 |
| CN1[C@H](C(=O)Nc2ccc(F)c(Cl)c2)C[C@H](c2ccc(Br)s2)NS1(=O)=O [HBV-CSU-114-ISO-I, (3S,5R)-5-(5-Bromothiophen-2-yl)-N-(3-chloro-4-fluorophenyl)-2-methyl-1,2,6-thiadiazinane-3-carboxamide 1,1-dioxide] | > 6.00 |
| CN1[C@@H](C(=O)Nc2ccc(F)c(Cl)c2)C[C@@H](c2ccc(Br)s2)NS1(=O)=O [HBV-CSU-114-ISO-II, 5-(5-Bromothiophen-2-yl)-N-(3-chloro-4-fluorophenyl)-2-methyl-1,2,6-thiadiazinane-3-carboxamide 1,1-dioxide] | < 5.30 |
| CN1[C@@H](C(=O)Nc2ccc(F)c(Cl)c2)C[C@H](c2ccc(Br)s2)NS1(=O)=O [HBV-CSU-114-Trans-ISO-I, (3R,5R)-5-(5-bromothiophen-2-yl)-N-(3-chloro-4-fluorophenyl)-2-methyl-1,2,6-thiadiazinane-3-carboxamide 1,1-dioxide] | 5.30 to 6.00 |
| CN1[C@H](C(=O)Nc2ccc(F)c(Cl)c2)C[C@@H](c2ccc(Br)s2)NS1(=O)=O [HBV-CSU-114-Trans-ISO-II, (3S,5S)-5-(5-bromothiophen-2-yl)-N-(3-chloro-4-fluorophenyl)-2-methyl-1,2,6-thiadiazinane-3-carboxamide 1,1-dioxide] | 5.30 to 6.00 |
| Cc1ccc([C@H]2C[C@@H](C(=O)Nc3ccc(F)c(Cl)c3)N(C)S(=O)(=O)N2)s1 [HBV-CSU-115-ISO-I, Cis-N-(3-chloro-4-fluorophenyl)-2-methyl-5-(5-methylthiophen-2-yl)-1,2,6-thiadiazinane-3-carboxamide 1,1-dioxide] | > 6.00 |
| Cc1ccc([C@@H]2C[C@H](C(=O)Nc3ccc(F)c(Cl)c3)N(C)S(=O)(=O)N2)s1 [HBV-CSU-115-ISO-II, Cis-N-(3-chloro-4-fluorophenyl)-2-methyl-5-(5-methylthiophen-2-yl)-1,2,6-thiadiazinane-3-carboxamide 1,1-dioxide] | < 5.30 |
| CN1[C@H](C(=O)Nc2ccc(F)c(Cl)c2)C[C@H](c2ccc(-c3ccccc3)s2)NS1(=O)=O [HBV-CSU-116-ISO-I, Cis-N-(3-chloro-4-fluorophenyl)-2-methyl-5-(5-phenylthiophen-2-yl)-1,2,6-thiadiazinane-3-carboxamide 1,1-dioxide] | > 6.00 |
| CN1C(C(=O)Nc2ccc(F)c(Cl)c2)CC(c2ccc(Cc3ccccc3)s2)NS1(=O)=O (stereo not drawn) [HBV-CSU-117, Cis-(5-benzylthiophen-2-yl)-N-(3-chloro-4-fluorophenyl)-2-methyl-1,2,6-thiadiazinane-3-carboxamide 1,1-dioxide] | > 6.00 |
| CN1[C@H](C(=O)Nc2ccc(F)c(Cl)c2)C[C@H](c2ccc(Cc3ccccc3)s2)NS1(=O)=O [HBV-CSU-117-ISO-I, Cis-(5-benzylthiophen-2-yl)-N-(3-chloro-4-fluorophenyl)-2-methyl-1,2,6-thiadiazinane-3-carboxamide 1,1-dioxide] | > 6.00 |
| CN1[C@@H](C(=O)Nc2ccc(F)c(Cl)c2)C[C@@H](c2ccc(Cc3ccccc3)s2)NS1(=O)=O [HBV-CSU-117-ISO-II, Cis-(5-benzylthiophen-2-yl)-N-(3-chloro-4-fluorophenyl)-2-methyl-1,2,6-thiadiazinane-3-carboxamide 1,1-dioxide] | 5.30 to 6.00 |
| CN1[C@H](C(=O)Nc2ccc(F)c(Cl)c2)C[C@H](c2ncc(Br)s2)NS1(=O)=O [HBV-CSU-122-ISO-I, (3S,5R)-5-(5-bromothiazol-2-yl)-N-(3-chloro-4-fluorophenyl)-2-methyl-1,2,6-thiadiazinane-3-carboxamide 1,1-dioxide] | > 6.00 |
| CN1[C@@H](C(=O)Nc2ccc(F)c(Cl)c2)C[C@@H](c2ncc(Br)s2)NS1(=O)=O [HBV-CSU-122-ISO-II, Cis-5-(5-bromothiazol-2-yl)-N-(3-chloro-4-fluorophenyl)-2-methyl-1,2,6-thiadiazinane-3-carboxamide 1,1-dioxide] | 5.30 to 6.00 |
| CN1[C@@H](C(=O)Nc2ccc(F)c(Cl)c2)C[C@H](c2ncc(Br)s2)NS1(=O)=O [HBV-CSU-122-Trans-ISO-I, (3R,5R)-5-(5-bromothiazol-2-yl)-N-(3-chloro-4-fluorophenyl)-2-methyl-1,2,6-thiadiazinane-3-carboxamide 1,1-dioxide] | 5.30 to 6.00 |
| CN1[C@H](C(=O)Nc2ccc(F)c(Cl)c2)C[C@@H](c2ncc(Br)s2)NS1(=O)=O [HBV-CSU-122-Trans-ISO-II, (3S,5S)-5-(5-bromothiazol-2-yl)-N-(3-chloro-4-fluorophenyl)-2-methyl-1,2,6-thiadiazinane-3-carboxamide 1,1-dioxide] | 5.30 to 6.00 |
| CCOCCN1[C@@H](C(=O)Nc2ccc(F)c(Cl)c2)C[C@@H](c2nccs2)NS1(=O)=O [HBV-CSU-142-ISO-I, Cis-N-(3-Chloro-4-fluorophenyl)-2-(2-ethoxyethyl)-5-(thiazol-2-yl)-1,2,6-thiadiazinane-3-carboxamide 1,1-dioxide] | 5.30 to 6.00 |
| CC(C)OCCN1C(C(=O)Nc2ccc(F)c(Cl)c2)CC(c2nccs2)NS1(=O)=O (stereo not drawn) [HBV-CSU-143, Cis-N-(3-Chloro-4-fluorophenyl)-2-(2-isopropoxyethyl)-5-(thiazol-2-yl)-1,2,6-thiadiazinane-3-carboxamide 1,1-dioxide] | > 6.00 |
| CN1C(C(=O)Nc2ccc(F)c(Cl)c2)CC(c2cc(Br)cs2)NS1(=O)=O (stereo not drawn) [HBV-CSU-146, 5-(4-Bromothiophen-2-yl)-N-(3-chloro-4-fluorophenyl)-2-methyl-1,2,6-thiadiazinane-3-carboxamide 1,1-dioxide] | > 6.00 |
| CN1[C@H](C(=O)Nc2ccc(F)c(Cl)c2)C[C@H](c2cc(Br)cs2)NS1(=O)=O [HBV-CSU-146-ISO-I, 5-(4-Bromothiophen-2-yl)-N-(3-chloro-4-fluorophenyl)-2-methyl-1,2,6-thiadiazinane-3-carboxamide 1,1-dioxide] | > 6.00 |
| CN1[C@@H](C(=O)Nc2ccc(F)c(Cl)c2)C[C@@H](c2cc(Br)cs2)NS1(=O)=O [HBV-CSU-146-ISO-II, 5-(4-Bromothiophen-2-yl)-N-(3-chloro-4-fluorophenyl)-2-methyl-1,2,6-thiadiazinane-3-carboxamide 1,1-dioxide] | < 5.30 |
| Cc1csc([C@H]2C[C@@H](C(=O)Nc3ccc(F)c(Cl)c3)N(C)S(=O)(=O)N2)c1 [HBV-CSU-147-ISO-I, Cis-N-(3-chloro-4-fluorophenyl)-2-methyl-5-(4-methylthiophen-2-yl)-1,2,6-thiadiazinane-3-carboxamide 1,1-dioxide] | > 6.00 |
| Cc1csc([C@@H]2C[C@H](C(=O)Nc3ccc(F)c(Cl)c3)N(C)S(=O)(=O)N2)c1 [HBV-CSU-147-ISO-II, Cis-N-(3-chloro-4-fluorophenyl)-2-methyl-5-(4-methylthiophen-2-yl)-1,2,6-thiadiazinane-3-carboxamide 1,1-dioxide] | < 5.30 |
| CN1[C@H](C(=O)Nc2ccc(F)c(Cl)c2)C[C@H](c2cc(-c3ccccc3)cs2)NS1(=O)=O [HBV-CSU-148-ISO-I, Cis-N-(3-chloro-4-fluorophenyl)-2-methyl-5-(4-phenylthiophen-2-yl)-1,2,6-thiadiazinane-3-carboxamide 1,1-dioxide] | > 6.00 |
| CN1[C@@H](C(=O)Nc2ccc(F)c(Cl)c2)C[C@@H](c2cc(-c3ccccc3)cs2)NS1(=O)=O [HBV-CSU-148-ISO-II, Cis-N-(3-chloro-4-fluorophenyl)-2-methyl-5-(4-phenylthiophen-2-yl)-1,2,6-thiadiazinane-3-carboxamide 1,1-dioxide] | 5.30 to 6.00 |
| CN1[C@H](C(=O)Nc2ccc(F)c(Cl)c2)C[C@H](c2cc(Cc3ccccc3)cs2)NS1(=O)=O [HBV-CSU-149-ISO-I, Cis-(4-benzylthiophen-2-yl)-N-(3-chloro-4-fluorophenyl)-2-methyl-1,2,6-thiadiazinane-3-carboxamide 1,1-dioxide] | > 6.00 |
| CN1[C@@H](C(=O)Nc2ccc(F)c(Cl)c2)C[C@@H](c2cc(Cc3ccccc3)cs2)NS1(=O)=O [HBV-CSU-149-ISO-II, Cis-(4-benzylthiophen-2-yl)-N-(3-chloro-4-fluorophenyl)-2-methyl-1,2,6-thiadiazinane-3-carboxamide 1,1-dioxide] | 5.30 to 6.00 |
| CN1[C@H](C(=O)Nc2ccc(F)c(Cl)c2)C[C@H](c2ccc(-c3ccc(C#N)c(F)c3)s2)NS1(=O)=O [HBV-CSU-156-ISO-I, Cis-N-(3-chloro-4-fluorophenyl)-5-(5-(4-cyano-3-fluorophenyl)thiophen-2-yl)-2-methyl-1,2,6-thiadiazinane-3-carboxamide 1,1-dioxide] | > 6.00 |
| CN1[C@@H](C(=O)Nc2ccc(F)c(Cl)c2)C[C@@H](c2ccc(-c3ccc(C#N)c(F)c3)s2)NS1(=O)=O [HBV-CSU-156-ISO-II, Cis-N-(3-chloro-4-fluorophenyl)-5-(5-(4-cyano-3-fluorophenyl)thiophen-2-yl)-2-methyl-1,2,6-thiadiazinane-3-carboxamide 1,1-dioxide] | < 5.30 |
| CN1C(C(=O)Nc2ccc(F)c(Cl)c2)CC(c2ccc(-c3ccc(Br)c(F)c3)s2)NS1(=O)=O (stereo not drawn) [HBV-CSU-157, Cis-N-(3-chloro-4-fluorophenyl)-5-(5-(4-bromo-3-fluorophenyl)thiophen-2-yl)-2-methyl-1,2,6-thiadiazinane-3-carboxamide 1,1-dioxide] | 5.30 to 6.00 |
